Experimental data taken from article doi:10.1101/2024.08.13.607785v1 (biorxiv, 2024).
Where two headings read alike, the source gives them in different places. Each block holds one compound with its values, some of them ahead of it.

Key:
Assay in all cases: biochemical
Parameters in all cases: species or system human cell line lysate
[1] = target: BMP-2-inducible protein kinase ; BMP2K ; Q9NSY1 (Homo sapiens, UniProt Q9NSY1)
[2] = target: Calcium/calmodulin-dependent protein kinase type II subunit delta ; CAMK2D ; Q13557 (Homo sapiens, UniProt Q13557)
[3] = target: Inositol polyphosphate multikinase ; IPMK ; Q8NFU5 (Homo sapiens, UniProt Q8NFU5)
[4] = target: Isoform 3 of Membrane-associated tyrosine- and threonine-specific cdc2 ; PKMYT1 ; Q99640-3 (Homo sapiens, UniProt Q99640)
[5] = target: Serine/threonine-protein kinase SIK3 ; SIK3 ; Q9Y2K2 (Homo sapiens, UniProt Q9Y2K2)
[6] = target: Tyrosine-protein kinase Fer ; FER ; P16591 (Homo sapiens, UniProt P16591)
[7] = target: Casein kinase II subunit alpha' ; CSNK2A2 ; P19784 (Homo sapiens, UniProt P19784)
[8] = target: Dual specificity mitogen-activated protein kinase kinase 6 ; MAP2K6 ; P52564 (Homo sapiens, UniProt P52564)
[9] = target: Mitotic checkpoint serine/threonine-protein kinase BUB1 ; BUB1 ; O43683 (Homo sapiens, UniProt O43683)
[10] = target: Serine/threonine-protein kinase TBK1 ; TBK1 ; Q9UHD2 (Homo sapiens, UniProt Q9UHD2)
[11] = target: Serine/threonine-protein kinase ULK3 ; ULK3 ; Q6PHR2 (Homo sapiens, UniProt Q6PHR2)
[12] = target: Serine/threonine-protein kinase ATR ; ATR ; Q13535 (Homo sapiens, UniProt Q13535)
[13] = target: Serine/threonine-protein kinase mTOR ; MTOR ; P42345 (Homo sapiens, UniProt P42345)
[14] = target: SNF-related serine/threonine-protein kinase ; SNRK ; Q9NRH2 (Homo sapiens, UniProt Q9NRH2)
[15] = target: Serine/threonine-protein kinase TAO3 ; TAOK3 ; Q9H2K8 (Homo sapiens, UniProt Q9H2K8)
[16] = target: Serine/threonine-protein kinase PLK1 ; PLK1 ; P53350 (Homo sapiens, UniProt P53350)
[17] = target: Mitogen-activated protein kinase 6 ; MAPK6 ; Q16659 (Homo sapiens, UniProt Q16659)
[18] = target: Tyrosine-protein kinase CSK ; CSK ; P41240 (Homo sapiens, UniProt P41240)
[19] = target: Phosphatidylinositol 4,5-bisphosphate 3-kinase catalytic subunit delta ; PIK3CD ; O00329 (Homo sapiens, UniProt O00329)
[20] = target: cAMP-dependent protein kinase catalytic subunit beta ; PRKACB ; P22694 (Homo sapiens, UniProt P22694)
[21] = target: Adenylate kinase isoenzyme 6 ; AK6 ; Q9Y3D8 (Homo sapiens, UniProt Q9Y3D8)
[22] = target: Serine/threonine-protein kinase ULK1 ; ULK1 ; O75385 (Homo sapiens, UniProt O75385)
[23] = target: Serine/threonine-protein kinase RIO1 ; RIOK1 ; Q9BRS2 (Homo sapiens, UniProt Q9BRS2)
[24] = read-out: BAY-1251152 (10 µM) / %Intensity relative to DMSO
[25] = read-out: BAY-1143572 (10 µM) / %Intensity relative to DMSO

Serine/threonine-protein kinase TAO3 ; TAOK3 ; Q9H2K8, sequence (Q9H2K8 whole entry, one chain of several): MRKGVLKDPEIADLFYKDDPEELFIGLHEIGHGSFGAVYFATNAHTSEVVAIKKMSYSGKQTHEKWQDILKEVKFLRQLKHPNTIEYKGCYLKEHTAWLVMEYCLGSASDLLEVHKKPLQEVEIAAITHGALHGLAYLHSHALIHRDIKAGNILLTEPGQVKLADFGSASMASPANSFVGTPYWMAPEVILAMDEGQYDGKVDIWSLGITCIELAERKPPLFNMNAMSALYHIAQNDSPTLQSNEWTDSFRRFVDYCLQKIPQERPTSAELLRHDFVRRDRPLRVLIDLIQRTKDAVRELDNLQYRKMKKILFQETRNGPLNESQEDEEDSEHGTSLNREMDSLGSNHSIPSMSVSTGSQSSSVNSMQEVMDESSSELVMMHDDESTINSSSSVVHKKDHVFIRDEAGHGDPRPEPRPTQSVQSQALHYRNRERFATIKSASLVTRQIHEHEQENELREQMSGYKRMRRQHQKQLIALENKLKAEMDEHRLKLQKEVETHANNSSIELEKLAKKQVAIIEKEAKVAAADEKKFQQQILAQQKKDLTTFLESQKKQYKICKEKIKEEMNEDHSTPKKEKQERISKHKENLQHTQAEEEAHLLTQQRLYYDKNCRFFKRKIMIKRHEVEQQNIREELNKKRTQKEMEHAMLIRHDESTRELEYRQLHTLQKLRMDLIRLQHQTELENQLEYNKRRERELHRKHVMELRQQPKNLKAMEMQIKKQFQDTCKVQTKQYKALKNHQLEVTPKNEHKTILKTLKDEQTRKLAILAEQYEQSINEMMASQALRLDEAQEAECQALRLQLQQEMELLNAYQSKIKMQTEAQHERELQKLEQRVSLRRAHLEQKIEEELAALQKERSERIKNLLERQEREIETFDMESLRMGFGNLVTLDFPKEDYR
Serine/threonine-protein kinase ULK3 ; ULK3 ; Q6PHR2, sequence (Q6PHR2 whole entry, one chain of several): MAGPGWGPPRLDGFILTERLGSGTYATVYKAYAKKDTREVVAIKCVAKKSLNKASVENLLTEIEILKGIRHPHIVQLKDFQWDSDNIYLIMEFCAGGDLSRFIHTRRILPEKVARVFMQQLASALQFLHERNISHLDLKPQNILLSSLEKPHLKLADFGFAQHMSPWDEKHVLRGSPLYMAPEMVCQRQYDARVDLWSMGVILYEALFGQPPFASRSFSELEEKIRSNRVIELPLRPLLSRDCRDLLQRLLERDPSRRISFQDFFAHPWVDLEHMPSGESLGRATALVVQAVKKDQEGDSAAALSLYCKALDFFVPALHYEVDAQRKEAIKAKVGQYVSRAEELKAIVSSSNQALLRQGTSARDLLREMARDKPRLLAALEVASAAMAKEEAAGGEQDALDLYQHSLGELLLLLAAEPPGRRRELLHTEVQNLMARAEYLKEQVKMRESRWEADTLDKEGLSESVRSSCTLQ
Serine/threonine-protein kinase RIO1 ; RIOK1 ; Q9BRS2, sequence (Q9BRS2 whole entry, one chain of several): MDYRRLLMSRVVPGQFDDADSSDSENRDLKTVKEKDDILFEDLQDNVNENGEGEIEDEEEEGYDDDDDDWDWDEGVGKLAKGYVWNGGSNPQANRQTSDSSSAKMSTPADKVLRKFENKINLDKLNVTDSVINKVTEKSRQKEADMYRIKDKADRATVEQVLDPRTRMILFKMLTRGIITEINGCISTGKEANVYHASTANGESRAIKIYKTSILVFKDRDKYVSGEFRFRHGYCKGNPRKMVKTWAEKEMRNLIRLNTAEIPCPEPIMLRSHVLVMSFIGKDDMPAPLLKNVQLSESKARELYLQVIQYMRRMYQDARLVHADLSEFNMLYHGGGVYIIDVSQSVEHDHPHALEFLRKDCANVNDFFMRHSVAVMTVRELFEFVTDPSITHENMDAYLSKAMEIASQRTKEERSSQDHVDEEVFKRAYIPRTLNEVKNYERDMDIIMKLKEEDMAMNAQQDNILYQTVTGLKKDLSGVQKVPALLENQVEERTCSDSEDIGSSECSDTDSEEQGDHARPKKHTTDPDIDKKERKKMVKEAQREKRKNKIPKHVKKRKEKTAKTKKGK
Serine/threonine-protein kinase ATR ; ATR ; Q13535, sequence (Q13535 whole entry, one chain of several): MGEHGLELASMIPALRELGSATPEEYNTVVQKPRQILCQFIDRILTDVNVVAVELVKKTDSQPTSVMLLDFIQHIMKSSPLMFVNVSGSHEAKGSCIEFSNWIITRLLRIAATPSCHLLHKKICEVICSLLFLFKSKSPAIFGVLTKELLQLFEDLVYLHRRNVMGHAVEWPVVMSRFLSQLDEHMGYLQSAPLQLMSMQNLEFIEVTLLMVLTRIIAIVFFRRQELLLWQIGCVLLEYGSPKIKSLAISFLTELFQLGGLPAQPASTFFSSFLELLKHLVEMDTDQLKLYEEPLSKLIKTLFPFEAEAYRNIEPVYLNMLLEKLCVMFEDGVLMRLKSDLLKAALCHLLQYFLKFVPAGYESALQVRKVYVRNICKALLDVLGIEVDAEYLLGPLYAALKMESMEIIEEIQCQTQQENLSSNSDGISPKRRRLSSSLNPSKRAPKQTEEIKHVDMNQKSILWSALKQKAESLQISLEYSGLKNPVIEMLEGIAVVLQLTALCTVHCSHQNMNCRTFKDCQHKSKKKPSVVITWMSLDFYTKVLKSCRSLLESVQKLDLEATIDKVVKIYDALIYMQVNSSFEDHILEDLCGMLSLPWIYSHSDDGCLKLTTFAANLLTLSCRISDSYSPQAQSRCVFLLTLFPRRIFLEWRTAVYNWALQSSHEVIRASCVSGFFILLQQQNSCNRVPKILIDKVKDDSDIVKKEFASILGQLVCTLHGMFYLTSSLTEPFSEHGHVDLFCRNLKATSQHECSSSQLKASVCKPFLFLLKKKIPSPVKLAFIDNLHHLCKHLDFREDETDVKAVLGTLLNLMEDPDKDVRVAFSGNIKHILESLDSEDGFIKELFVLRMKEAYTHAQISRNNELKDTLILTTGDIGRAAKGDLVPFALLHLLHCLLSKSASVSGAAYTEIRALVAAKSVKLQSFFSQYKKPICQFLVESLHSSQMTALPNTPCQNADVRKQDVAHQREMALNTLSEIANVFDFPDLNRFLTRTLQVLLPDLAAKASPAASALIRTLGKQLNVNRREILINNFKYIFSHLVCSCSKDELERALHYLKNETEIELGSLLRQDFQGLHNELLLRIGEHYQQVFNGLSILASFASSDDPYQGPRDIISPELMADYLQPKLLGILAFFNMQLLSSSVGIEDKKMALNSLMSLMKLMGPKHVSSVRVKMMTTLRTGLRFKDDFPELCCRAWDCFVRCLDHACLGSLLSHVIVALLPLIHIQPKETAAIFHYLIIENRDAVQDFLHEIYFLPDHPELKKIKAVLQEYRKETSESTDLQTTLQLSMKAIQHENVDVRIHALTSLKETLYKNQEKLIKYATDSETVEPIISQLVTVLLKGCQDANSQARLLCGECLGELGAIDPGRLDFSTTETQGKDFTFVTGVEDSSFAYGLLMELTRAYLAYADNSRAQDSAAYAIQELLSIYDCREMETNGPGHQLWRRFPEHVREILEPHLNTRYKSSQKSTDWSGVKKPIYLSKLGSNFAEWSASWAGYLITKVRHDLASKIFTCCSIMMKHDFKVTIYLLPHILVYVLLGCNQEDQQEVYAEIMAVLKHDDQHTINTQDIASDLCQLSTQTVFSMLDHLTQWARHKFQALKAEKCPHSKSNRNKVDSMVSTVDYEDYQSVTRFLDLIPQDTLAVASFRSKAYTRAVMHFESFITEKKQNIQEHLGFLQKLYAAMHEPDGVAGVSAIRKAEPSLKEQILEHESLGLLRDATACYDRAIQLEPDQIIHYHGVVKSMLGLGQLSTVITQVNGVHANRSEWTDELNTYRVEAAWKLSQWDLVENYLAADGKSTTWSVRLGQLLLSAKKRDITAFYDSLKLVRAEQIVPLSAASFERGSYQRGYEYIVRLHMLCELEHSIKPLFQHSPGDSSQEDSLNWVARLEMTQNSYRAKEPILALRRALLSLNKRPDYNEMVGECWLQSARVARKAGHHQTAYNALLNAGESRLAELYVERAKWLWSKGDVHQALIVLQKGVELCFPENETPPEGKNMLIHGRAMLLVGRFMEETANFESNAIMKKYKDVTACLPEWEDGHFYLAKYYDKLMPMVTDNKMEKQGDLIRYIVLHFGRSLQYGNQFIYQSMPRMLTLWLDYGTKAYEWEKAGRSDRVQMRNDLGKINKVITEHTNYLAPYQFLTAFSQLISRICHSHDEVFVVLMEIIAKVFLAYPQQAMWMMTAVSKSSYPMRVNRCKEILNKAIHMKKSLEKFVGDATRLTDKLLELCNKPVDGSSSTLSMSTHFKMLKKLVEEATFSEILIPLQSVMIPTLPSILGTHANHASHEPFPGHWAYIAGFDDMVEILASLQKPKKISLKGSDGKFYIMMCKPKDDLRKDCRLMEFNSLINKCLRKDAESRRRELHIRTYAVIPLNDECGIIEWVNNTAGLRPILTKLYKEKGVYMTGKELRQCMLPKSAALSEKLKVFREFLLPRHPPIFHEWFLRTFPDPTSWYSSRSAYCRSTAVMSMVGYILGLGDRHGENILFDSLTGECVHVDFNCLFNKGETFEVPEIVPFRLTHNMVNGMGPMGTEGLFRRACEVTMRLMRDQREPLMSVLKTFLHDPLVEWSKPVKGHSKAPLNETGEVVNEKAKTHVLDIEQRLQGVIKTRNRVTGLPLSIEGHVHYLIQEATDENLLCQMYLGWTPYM
Dual specificity mitogen-activated protein kinase kinase 6 ; MAP2K6 ; P52564, sequence (P52564 whole entry): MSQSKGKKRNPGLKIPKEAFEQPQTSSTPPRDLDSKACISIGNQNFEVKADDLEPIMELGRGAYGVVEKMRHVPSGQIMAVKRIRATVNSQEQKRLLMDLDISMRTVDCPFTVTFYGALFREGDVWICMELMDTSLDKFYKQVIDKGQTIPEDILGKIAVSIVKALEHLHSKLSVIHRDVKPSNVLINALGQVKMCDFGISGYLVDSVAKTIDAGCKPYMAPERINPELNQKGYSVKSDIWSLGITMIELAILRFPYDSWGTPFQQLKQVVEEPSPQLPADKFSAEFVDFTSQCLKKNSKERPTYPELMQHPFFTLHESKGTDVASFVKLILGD
Adenylate kinase isoenzyme 6 ; AK6 ; Q9Y3D8, sequence (Q9Y3D8 whole entry): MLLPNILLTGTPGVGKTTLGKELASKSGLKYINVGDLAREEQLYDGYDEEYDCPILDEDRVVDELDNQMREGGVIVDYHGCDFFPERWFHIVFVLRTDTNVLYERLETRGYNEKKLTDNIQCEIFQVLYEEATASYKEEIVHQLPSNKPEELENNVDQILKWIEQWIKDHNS

remaining activity at 10 µM [1, 24]: 84.7% | remaining activity at 10 µM [2, 24]: 90.9% | remaining activity at 10 µM [3, 24]: 96.1% | remaining activity at 10 µM [4, 24]: 107% | remaining activity at 10 µM [5, 24]: 106% | remaining activity at 10 µM [6, 24]: 103% | remaining activity at 10 µM [7, 24]: 98.2% | remaining activity at 10 µM [8, 24]: 123% | remaining activity at 10 µM [9, 24]: 106% | remaining activity at 10 µM [10, 24]: 94% | remaining activity at 10 µM [11, 24]: 94.5% | remaining activity at 10 µM [12, 24]: 70.1% | remaining activity at 10 µM [13, 24]: 103% | remaining activity at 10 µM [14, 24]: 147% | remaining activity at 10 µM [15, 24]: 84% | remaining activity at 10 µM [16, 24]: 96.8% | remaining activity at 10 µM [17, 24]: 142% | remaining activity at 10 µM [18, 24]: 106% | remaining activity at 10 µM [19, 24]: 113% | remaining activity at 10 µM [20, 24]: 105% | remaining activity at 10 µM [21, 24]: 47.6% | remaining activity at 10 µM [22, 24]: 145% | remaining activity at 10 µM [23, 24]: 96.7%
Compound: COc1cc(F)ccc1-c1cc(Nc2cc(CS(C)(=N)=O)ccn2)ncc1F (stereo not shown) [BAY-1251152]

remaining activity at 10 µM [1, 25]: 88.5% | remaining activity at 10 µM [2, 25]: 94.4% | remaining activity at 10 µM [3, 25]: 107% | remaining activity at 10 µM [4, 25]: 117% | remaining activity at 10 µM [5, 25]: 109% | remaining activity at 10 µM [6, 25]: 112% | remaining activity at 10 µM [7, 25]: 114% | remaining activity at 10 µM [8, 25]: 142% | remaining activity at 10 µM [9, 25]: 109% | remaining activity at 10 µM [10, 25]: 94.7% | remaining activity at 10 µM [11, 25]: 93.7% | remaining activity at 10 µM [12, 25]: 109% | remaining activity at 10 µM [13, 25]: 98.9% | remaining activity at 10 µM [14, 25]: 191% | remaining activity at 10 µM [15, 25]: 111% | remaining activity at 10 µM [16, 25]: 104% | remaining activity at 10 µM [17, 25]: 106% | remaining activity at 10 µM [18, 25]: 112% | remaining activity at 10 µM [19, 25]: 116% | remaining activity at 10 µM [20, 25]: 111% | remaining activity at 10 µM [21, 25]: 34.2% | remaining activity at 10 µM [22, 25]: 132% | remaining activity at 10 µM [23, 25]: 106%
Compound: COc1cc(F)ccc1-c1ncnc(Nc2cccc(C[S@](C)(=N)=O)c2)n1 [BAY-1143572]
